Measurements published in patent publication US9221870B2, “Crystal form of an organic compound and process for the preparation thereof” (Richter Gedeon Nyrt., priority 2009, dated 2015).
Values after ≈ are worked out from the molar mass of the structure shown.

Tests used:
Assay type in all cases: physicochemical
[1] = Fast stability test (storage on a plate at 40° C. in air, impurity by HPLC); conditions: for Impurity / N-demethyl-derivative of CDB-4124: HPLC; for Impurity, Σ (increase Day 0 to Day 10) / N-demethyl-derivative of CDB-4124, Σ (increase Day 0 to Day 10): Σ over 10 days, in the presence of air
Experimental: Amorphous and crystalline forms were stored on a plate at 40° C. in the presence of air for 10 days. Impurity was measured at different times using an HPLC equipment. […]

[2] = Solubility at 25° C. in solvent (MeOH)
Excerpt: Form I is a monotropic modification of CDB-4124 such as Form II. […] Furthermore, Form I can be transformed into Form II via crystallization from different medium.

[3] = Water adsorption by dynamic vapour sorption (DVS); conditions: 25° C., 0%-95% relative humidity, adsorption-desorption
Experimental: Water adsorption properties of the crystalline Form II of CDB-4124 were measured by dynamic vapour sorption technique (DVS). […]

COCC(=O)[C@@]1(OC(C)=O)CC[C@H]2[C@@H]3CCC4=CC(=O)CCC4=C3[C@@H](c3ccc(N(C)C)cc3)C[C@@]21C [Form II, 17α-acetoxy-21-methoxy-11β-[4-N,N-dimethylaminophenyl]-19-norpregna-4,9-diene-3,20-dione]
Impurity ([1]; Day 0, in the presence of air): 0.14% | N-demethyl-derivative of CDB-4124 ([1]; Day 0, in the presence of air): 0.02% | Impurity ([1]; Day 1, in the presence of air): 0.14% | N-demethyl-derivative of CDB-4124 ([1]; Day 1, in the presence of air): 0.02% | Impurity ([1]; Day 2, in the presence of air): 0.14% | N-demethyl-derivative of CDB-4124 ([1]; Day 2, in the presence of air): 0.02% | Impurity ([1]; Day 6, in the presence of air): 0.15% | N-demethyl-derivative of CDB-4124 ([1]; Day 6, in the presence of air): 0.02% | Impurity ([1]; Day 10, in the presence of air): 0.17% | N-demethyl-derivative of CDB-4124 ([1]; Day 10, in the presence of air): 0.03% | Impurity, Σ (increase Day 0 to Day 10) [1]: 0.03% | N-demethyl-derivative of CDB-4124, Σ (increase Day 0 to Day 10) [1]: 0.01% | solubility [2]: 23 mg/mL (≈ 45.5 mM) | change of mass as the degree of humidity was increased [3]: barely changed

COCC(=O)[C@@]1(OC(C)=O)CC[C@H]2[C@@H]3CCC4=CC(=O)CCC4=C3[C@@H](c3ccc(N(C)C)cc3)C[C@@]21C [Form I, 17α-acetoxy-21-methoxy-11β-[4-N,N-dimethylaminophenyl]-19-norpregna-4,9-diene-3,20-dione, reference compound]
solubility [2]: 500 mg/mL (≈ 989 mM)

COCC(=O)[C@@]1(OC(C)=O)CC[C@H]2[C@@H]3CCC4=CC(=O)CCC4=C3[C@@H](c3ccc(N(C)C)cc3)C[C@@]21C [Amorphous form, 17α-acetoxy-21-methoxy-11β-[4-N,N-dimethylaminophenyl]-19-norpregna-4,9-diene-3,20-dione, reference compound]
Impurity ([1]; Day 0, in the presence of air): 0.87% | N-demethyl-derivative of CDB-4124 ([1]; Day 0, in the presence of air): 0.15% | Impurity ([1]; Day 1, in the presence of air): 0.97% | N-demethyl-derivative of CDB-4124 ([1]; Day 1, in the presence of air): 0.21% | Impurity ([1]; Day 2, in the presence of air): 1.03% | N-demethyl-derivative of CDB-4124 ([1]; Day 2, in the presence of air): 0.25% | Impurity ([1]; Day 6, in the presence of air): 1.63% | N-demethyl-derivative of CDB-4124 ([1]; Day 6, in the presence of air): 0.55% | Impurity ([1]; Day 10, in the presence of air): 1.97% | N-demethyl-derivative of CDB-4124 ([1]; Day 10, in the presence of air): 0.73% | Impurity, Σ (increase Day 0 to Day 10) [1]: 1.1% | N-demethyl-derivative of CDB-4124, Σ (increase Day 0 to Day 10) [1]: 0.58%
